# In article PMC9127750, “Structure-based design of CDC42 effector interaction inhibitors for the treatment of cancer” (Cell reports, 2022):
# System: WM3248 melanoma cells, 486 antibodies
# Assay: Reverse phase protein arrays (RPPA);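 for RPPA AceCS1.R.V: ratio of treated to vehicle (0 µM) normalized linear protein signal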;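 for RPPA Akt1 pS473.R.V: ratio of treated to vehicle (0 µM) normalized linear protein signal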;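 for RPPA Akt1.R.V: ratio of treated to vehicle (0 µM) normalized linear protein signal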;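 for RPPA Ambra1 pS52.R.C: ratio of treated to vehicle (0 µM) normalized linear protein signal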;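 for RPPA Atg5.R.C: ratio of treated to vehicle (0 µM) normalized linear protein signal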;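 for RPPA Bim.R.V: ratio of treated to vehicle (0 µM) normalized linear protein signal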
# Assay type: cell-based, Human
# Conditions: 10 uM, Average
# Description: Pellets were snap frozen in liquid nitrogen and shipped to MD Anderson Cancer Center core RPPA facility for RPPA analysis (Table S5). Three biological replicates for each sample were generated.
# Nomenclatures on the RPPA heatmaps: name_of_antibody.species_of_antibody.status_of_antibody. V - antibody validated; C - validation of antibody in progress; Q - antibody nonspecific; E – under evaluation; antibodies raised in M - mouse, G - goat, R - rabbit, or T - rat.
structure (smiles),measurement,value
"CN(C)c1cccc(Nc2cc(-c3ccccc3)nc(C3CCNCC3)n2)c1 [ARN22089, N1,N1-dimethyl-N3-(6-phenyl-2-(piperidin-4-yl)pyrimidin-4-yl)benzene-1,3-diamine]",RPPA ATM.R.V,0.927
same,RPPA ATM_pS1981.R.V,1.057
same,RPPA ATP5A.M.C,0.974
same,RPPA ATP5H.R.V,1.098
same,RPPA ATR.R.V,1.026
same,RPPA ATRX.R.C,0.906
same,RPPA ATR_pS428.R.C,0.986
same,RPPA AceCS1.R.V,0.979
same,RPPA Akt1.R.V,0.907
same,RPPA Akt1_pS473.R.V,0.954
same,RPPA Akt2.R.V,0.941
same,RPPA Akt2_pS474.R.C,1.021
same,RPPA Akt.R.V,0.867
same,RPPA Akt_pT308.R.V,0.981
same,RPPA Ambra1_pS52.R.C,1.030
same,RPPA Atg3.R.V,0.962
same,RPPA Atg4B.R.C,0.898
same,RPPA Atg5.R.C,0.891
same,RPPA Atg7.R.V,0.851
same,RPPA Aurora.A.R.C,1.056
same,RPPA Aurora.ABC_pT288_pT232_pT198.R.C,1.162
same,RPPA Axl.R.V,0.783
same,RPPA B7.H4.R.C,0.993
same,RPPA B.Raf.R.C,0.898
same,RPPA B.Raf_pS445.R.V,0.944
same,RPPA BAP1.M.V,0.990
same,RPPA BCL2A1.R.V,1.335
same,RPPA BMK1.Erk5_pT218_Y220.R.V,0.987
same,RPPA BRCA1.M.C,1.014
same,RPPA BRD4.R.V,1.015
same,RPPA Bax.R.V,0.964
same,RPPA Bcl2.R.C,1.027
same,RPPA Bcl.xL.R.V,1.001
same,RPPA BiP.GRP78.M.C,1.017
same,RPPA Bid.R.C,0.983
same,RPPA Bim.R.V,0.937
same,RPPA DNMT1.R.V,1.022
same,RPPA DRP1.R.V,0.982
same,RPPA DUSP4.R.V,0.898
same,RPPA DUSP6.R.C,0.937
same,RPPA Dvl3.R.V,0.985
same,RPPA E.Cadherin.R.V,1.055
same,RPPA EGFR.R.V,0.930
same,RPPA EGFR_pY1068.R.C,1.016
same,RPPA EGFR_pY1173.R.V,0.991
same,RPPA EMA.M.C,1.130
same,RPPA ENY2.M.C,1.020
same,RPPA ER.a.R.V,0.940
same,RPPA ER.a_pS118.R.V,0.975
same,RPPA ERCC5.R.C,0.879
same,RPPA EVI1.R.V,1.063
same,RPPA Elk1_pS383.R.C,0.992
same,RPPA Enolase.1.R.V,0.999
same,RPPA EphA2.R.V,1.002
same,RPPA EphA2_pS897.R.C,1.008
same,RPPA EphA2_pY588.R.C,0.983
same,RPPA Erk5.R.V,0.909
same,RPPA FABP5.R.C,1.006
same,RPPA FAK.R.C,0.977
same,RPPA FAK_pY397.R.V,1.056
same,RPPA FANCD2.R.V,1.010
same,RPPA FASN.R.V,0.855
same,RPPA FGF.basic.R.C,0.941
same,RPPA FN14.R.C,1.032
same,RPPA FOXM1.R.V,1.022
same,RPPA FOXO3.R.V,1.030
same,RPPA FRS2.alpha_pY196.R.V,1.286
same,RPPA FTO.R.V,1.004
same,RPPA Fibronectin.R.V,0.843
same,RPPA FoxO3a_pS318_S321.R.C,1.028
same,RPPA G6PD.R.V,1.065
same,RPPA GATA3.M.V,1.016
same,RPPA GATA6.R.V,1.046
same,RPPA GCLC.R.C,0.968
same,RPPA GCLM.R.V,1.026
same,RPPA GCN5L2.R.V,0.929
same,RPPA GGPS1.M.V,1.006
same,RPPA GRB2.R.V,0.910
same,RPPA GRB7.R.V,0.970
same,RPPA GSK.3B.R.C,0.917
same,RPPA Gab2.R.V,0.984
same,RPPA Gli1.R.C,1.007
same,RPPA Gli3.R.C,0.971
same,RPPA Glucocorticoid.Receptor.R.V,1.081
same,RPPA Glutamate.D1.2.R.V,1.054
same,RPPA Glutaminase.R.C,0.935
same,RPPA Granzyme.B.R.V,0.974
same,RPPA Grp75.R.C,1.080
same,RPPA Gys.R.V,0.978
same,RPPA Gys_pS641.R.V,1.007
same,RPPA H2AX_pS139.R.C,0.966
same,RPPA HER2.M.V,1.022
same,RPPA HER3.R.V,0.985
same,RPPA HER3_pY1289.R.C,0.975
same,RPPA HES1.R.V,0.990
same,RPPA Heregulin.R.V,0.902
same,RPPA X4E.BP1.R.V,0.842
same,RPPA X4E.BP1_pS65.R.V,1.009
same,RPPA X4E.BP1_pT37_T46.R.V,1.014
same,RPPA X14.3.3.zeta.R.V,1.029
same,RPPA X14.3.3εM.C,1.000
same,RPPA X53BP1.R.V,0.942
same,RPPA b.Actin.R.C,1.019
same,RPPA b.Catenin_pT41_S45.R.V,1.005
same,RPPA c.Abl.R.V,1.077
same,RPPA c.Abl_pY412.R.C,0.962
same,RPPA c.IAP2.R.C,1.022
same,RPPA eIF4E.R.V,0.979
same,RPPA eIF4E_pS209.R.V,1.021
same,RPPA eIF4G.R.C,0.929
same,RPPA level HLA.DQA1.R.V,1.033
same,RPPA level HLA.DR.DP.DQ.DX.R.C,0.982
same,RPPA level HMHA1.R.V,0.975
same,RPPA level HSP27.M.C,1.029
same,RPPA level HSP27_pS82.R.V,0.988
same,RPPA level HSP70.R.C,0.942
same,RPPA level Hexokinase.II.R.V,0.989
same,RPPA level Hif.1αR.C,0.977
same,RPPA level Histone.H3.R.V,0.887
same,RPPA level IDO.R.C,1.004
same,RPPA level IGF1R_pY1135_Y1136.R.V,0.943
same,RPPA level IGFBP2.R.V,0.781
same,RPPA level IGFBP3.M.V,0.976
same,RPPA level IGFRb.R.C,0.929
same,RPPA level IL.6.R.C,0.956
same,RPPA level IMP3.R.C,1.001
same,RPPA level IR.b.R.C,1.049
same,RPPA level IRF.1.R.V,0.861
same,RPPA level IRS1.R.V,0.974
same,RPPA level IRS2.R.C,0.998
same,RPPA level JAB1.M.C,1.013
same,RPPA level JNK2.R.V,1.853
same,RPPA level JNK_pT183_Y185.R.C,0.981
same,RPPA level Jagged1.R.V,0.989
same,RPPA level Jak2.R.V,0.961
same,RPPA level KAP1.R.V,0.913
same,RPPA level KEAP1.R.V,0.975
same,RPPA level LC3A.B.R.C,0.954
same,RPPA level LCN2.R.V,1.252
same,RPPA level LDHA.R.C,1.005
same,RPPA level LRP6_pS1490.R.V,0.929
same,RPPA level Lck.R.V,0.974
same,RPPA level MACC1.R.V,1.049
same,RPPA level MAPK_pT202_Y204.R.C,0.956
same,RPPA level MCT4.R.V,0.820
same,RPPA level MDM2_pS166.R.V,1.004
same,RPPA level MEK1.R.V,1.435
same,RPPA level MEK1_pS217_S221.R.V,0.992
same,RPPA level MEK2.R.V,0.978
same,RPPA level MERIT40.R.C,0.950
same,RPPA level MERIT40_pS29.R.V,1.020
same,RPPA level METTL3.R.V,1.051
same,RPPA level MIF.R.C,1.063
same,RPPA level MIG6.R.V,1.022
same,RPPA level MLH1.M.V,0.972
same,RPPA level MLKL.R.V,0.916
same,RPPA level MMP2.R.V,0.984
same,RPPA level MMP14.R.V,1.009
same,RPPA level MRAP.R.C,1.048
same,RPPA level MSH2.R.C,1.016
same,RPPA level MSH6.R.C,0.997
same,RPPA level MSI2.R.C,0.997
